Data reported in ChEMBL document CHEMBL1201862, “PubChem BioAssay data set” (2004).
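Results reflect a 48-hour exposure of cells in 96-well plates to compound at five concentrations. GI50 marks 50% less growth.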 The source made the active and inactive calls. Cut-off read from the data, not from the text of the source: active = GI50 up to about 1.1 µM and inactive = higher.

What was measured:
Experiment in all cases: DTP human tumour cell line panel, 48 h
OVCAR-8 = system: OVCAR-8
UACC-257 = system: UACC-257
CCRF-CEM = system: CCRF-CEM
OVCAR-3 = system: OVCAR-3
OVCAR-5 = system: OVCAR-5
SK-MEL-2 = system: SK-MEL-2
RPMI-8226 = system: RPMI-8226
NCI-H23 = system: NCI-H23
SK-MEL-5 = system: SK-MEL-5
SK-MEL-28 = system: SK-MEL-28
SW-620 = system: SW-620
MOLT-4 = system: MOLT-4
SN12C = system: SN12C
SNB-19 = system: SNB-19
COLO 205 = system: COLO 205
SK-OV-3 = system: SK-OV-3
A498 = system: A498
HCC 2998 = system: HCC 2998

Measured: GI50

CC(=O)NNc1nc(C)c(C(=O)NNC(=O)C(=O)Nc2c(Cl)cc([N+](=O)[O-])cc2Cl)s1
inactive: OVCAR-8 34.1 µM | UACC-257 26.6 µM | CCRF-CEM 31.8 µM | OVCAR-3 21 µM | OVCAR-5 27.2 µM | SK-MEL-2 43.5 µM | RPMI-8226 44.7 µM | NCI-H23 18.9 µM | SK-MEL-5 40 µM | SK-MEL-28 26.4 µM | SW-620 24.5 µM | MOLT-4 30.4 µM | SN12C 42.7 µM | SNB-19 43.8 µM | COLO 205 36.3 µM | SK-OV-3 48.5 µM | A498 21.6 µM | HCC 2998 37.8 µM

CSc1nc(SC)c2c(C#N)n[nH]c2n1
inactive: OVCAR-8 > 100 µM | UACC-257 > 100 µM | CCRF-CEM > 100 µM | OVCAR-3 > 100 µM | SK-MEL-2 > 100 µM | RPMI-8226 > 100 µM | NCI-H23 > 100 µM | SK-MEL-5 > 100 µM | SK-MEL-28 > 100 µM | SW-620 > 100 µM | MOLT-4 > 100 µM | SN12C > 100 µM | SNB-19 > 100 µM | COLO 205 > 100 µM | SK-OV-3 > 100 µM | A498 > 100 µM | HCC 2998 > 100 µM

Cc1cc(N(CCC#N)CCC#N)ccc1/C=C\C(=O)Nc1ccccc1
inactive: OVCAR-8 > 100 µM | UACC-257 > 100 µM | CCRF-CEM > 100 µM | OVCAR-3 > 100 µM | OVCAR-5 30.3 µM | SK-MEL-2 > 100 µM | RPMI-8226 > 100 µM | NCI-H23 > 100 µM | SK-MEL-5 > 100 µM | SK-MEL-28 > 100 µM | SW-620 > 100 µM | MOLT-4 > 100 µM | SN12C > 100 µM | SNB-19 > 100 µM | COLO 205 > 100 µM | SK-OV-3 > 100 µM | A498 > 100 µM | HCC 2998 13.6 µM

Cc1c(-c2cc(-c3ccccc3)n[nH]c2=O)c2ccccc2n1C
inactive: OVCAR-8 > 100 µM | UACC-257 > 100 µM | CCRF-CEM > 100 µM | OVCAR-3 > 100 µM | OVCAR-5 > 100 µM | SK-MEL-2 > 100 µM | RPMI-8226 76.2 µM | NCI-H23 > 100 µM | SK-MEL-5 > 100 µM | SK-MEL-28 > 100 µM | SW-620 > 100 µM | MOLT-4 > 100 µM | SN12C > 100 µM | SNB-19 > 100 µM | COLO 205 > 100 µM | SK-OV-3 > 100 µM | A498 > 100 µM | HCC 2998 > 100 µM

COC(=O)C1CC(=O)CCC1c1ccccc1 (stereo not given)
inactive: OVCAR-8 > 100 µM | UACC-257 > 100 µM | CCRF-CEM > 100 µM | OVCAR-3 > 100 µM | OVCAR-5 > 100 µM | SK-MEL-2 > 100 µM | RPMI-8226 > 100 µM | NCI-H23 > 100 µM | SK-MEL-5 > 100 µM | SK-MEL-28 > 100 µM | SW-620 > 100 µM | MOLT-4 > 100 µM | SN12C > 100 µM | SNB-19 > 100 µM | COLO 205 > 100 µM | SK-OV-3 > 100 µM | A498 > 100 µM | HCC 2998 > 100 µM

O=c1[nH]c(=O)n(C2CC(O)C(CO)O2)cc1OS(=O)(=O)C(F)(F)F (stereo not given)
inactive: OVCAR-8 > 100 µM | CCRF-CEM > 100 µM | OVCAR-3 > 100 µM | OVCAR-5 > 100 µM | SK-MEL-2 > 100 µM | RPMI-8226 > 100 µM | NCI-H23 > 100 µM | SK-MEL-5 > 100 µM | SK-MEL-28 > 100 µM | SW-620 > 100 µM | MOLT-4 > 100 µM | SN12C > 100 µM | SNB-19 > 100 µM | COLO 205 > 100 µM | SK-OV-3 > 100 µM | A498 > 100 µM | HCC 2998 > 100 µM

C[N+](C)(C)CC1CCC/C1=N/O (stereo not given)
inactive: OVCAR-8 1.86 µM | UACC-257 43 µM | CCRF-CEM 17.9 µM | OVCAR-3 > 100 µM | OVCAR-5 > 100 µM | SK-MEL-2 > 100 µM | RPMI-8226 25.7 µM | NCI-H23 > 100 µM | SK-MEL-5 > 100 µM | SK-MEL-28 > 100 µM | SW-620 2.62 µM | MOLT-4 > 100 µM | SN12C > 100 µM | SNB-19 > 100 µM | COLO 205 21.5 µM | SK-OV-3 > 100 µM | A498 > 100 µM | HCC 2998 > 100 µM

CC(=O)O[C@@H]1C2C(=O)OC(=O)C2C2CCC[C@]23O[C@H]13 (stereo not given in full)
inactive: OVCAR-8 > 100 µM | UACC-257 > 100 µM | CCRF-CEM > 100 µM | OVCAR-3 > 100 µM | SK-MEL-2 > 100 µM | RPMI-8226 > 100 µM | SK-MEL-5 > 100 µM | SK-MEL-28 > 100 µM | SW-620 > 100 µM | MOLT-4 > 100 µM | SN12C > 100 µM | SNB-19 > 100 µM | COLO 205 > 100 µM | SK-OV-3 > 100 µM | A498 > 100 µM | HCC 2998 > 100 µM
